According to patent publication US20260262643A1, “HERBICIDAL BENZOXAZINES” (FMC CORPORATION, priority 2022, published 2026):

Assays:
[1] = test system: galium; test: Test A postemergence; type: in vivo, Galium aparine
Summary of the method: (§1)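 Visual injury ratings on a 0–100 scale (100 = complete control) versus untreated controls, taken 10 days after treatment in greenhouse. Preemergence: directed soil spray onto seeded loam/sand. Postemergence: foliar application at one- to two-leaf stage, plants 2–10 cm. Formulation: non-phytotoxic solvent plus surfactant.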

[2] = test system: pigweed, palmer; test: Test A postemergence; type: in vivo, Amaranthus palmeri
Summary of the method: as §1

[3] = test system: foxtail, giant; test: Test A postemergence; type: in vivo, Setaria faberi
Summary of the method: as §1

[4] = test system: wheat; test: Test A preemergence; type: in vivo, Triticum aestivum
Summary of the method: as §1

[5] = test system: ragweed; test: Test A preemergence; type: in vivo, Ambrosia artemisiifolia
Summary of the method: as §1

[6] = test system: goosegrass; test: Test A preemergence; type: in vivo, Eleusine indica
Summary of the method: as §1

[7] = test system: corn; test: Test A postemergence; type: in vivo, Zea mays
Summary of the method: as §1

[8] = test system: ragweed; test: Test A postemergence; type: in vivo, Ambrosia artemisiifolia
Summary of the method: as §1

[9] = test system: ryegrass, Italian; test: Test A preemergence; type: in vivo, Lolium multiflorum
Summary of the method: as §1

[10] = test system: kochia; test: Test A preemergence; type: in vivo, Bassia scoparia
Summary of the method: as §1

[11] = test system: soybean; test: Test A postemergence; type: in vivo, Glycine max
Summary of the method: as §1

[12] = test system: sedge, umbrella; test: Test B flooded paddy test; type: in vivo, Cyperus difformis; settings: 250 g ai/ha, Flood, 13 days, 0 to 100 scale (0 no effect, 100 complete control)
Summary of the method: (§2)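 Application into standing water (3 cm above soil) at the two-leaf stage; flood depth held constant. Evaluation: day 13, visual comparison with controls, 0 = no injury, 100 = complete control.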

[13] = test system: blackgrass; test: Test A preemergence; type: in vivo, Alopecurus myosuroides
Summary of the method: as §1

[14] = test system: rice; test: Test B flooded paddy test; type: in vivo, Oryza sativa; settings: 250 g ai/ha, Flood, 13 days, 0 to 100 scale (0 no effect, 100 complete control)
Summary of the method: as §2

[15] = test system: ryegrass, Italian; test: Test A postemergence; type: in vivo, Lolium multiflorum
Summary of the method: as §1

[16] = test system: wheat; test: Test A postemergence; type: in vivo, Triticum aestivum
Summary of the method: as §1

[17] = test system: foxtail, giant; test: Test A preemergence; type: in vivo, Setaria faberi
Summary of the method: as §1

[18] = test system: barnyardgrass; test: Test B flooded paddy test; type: in vivo, Echinochloa crus-galli; settings: 250 g ai/ha, Flood, 13 days, 0 to 100 scale (0 no effect, 100 complete control)
Summary of the method: as §2

[19] = test system: soybean; test: Test A preemergence; type: in vivo, Glycine max
Summary of the method: as §1

[20] = test system: kochia; test: Test A postemergence; type: in vivo, Bassia scoparia
Summary of the method: as §1

[21] = test system: blackgrass; test: Test A postemergence; type: in vivo, Alopecurus myosuroides
Summary of the method: as §1

[22] = test system: horseweed; test: Test A postemergence; type: in vivo, Erigeron canadensis
Summary of the method: as §1

[23] = test system: oat, wild; test: Test A preemergence; type: in vivo, Avena fatua
Summary of the method: as §1

[24] = test system: corn; test: Test A preemergence; type: in vivo, Zea mays
Summary of the method: as §1

[25] = test system: oat, wild; test: Test A postemergence; type: in vivo, Avena fatua
Summary of the method: as §1

[26] = test system: goosegrass; test: Test A postemergence; type: in vivo, Eleusine indica
Summary of the method: as §1

[27] = test system: pigweed, palmer; test: Test A preemergence; type: in vivo, Amaranthus palmeri
Summary of the method: as §1

[28] = test system: ducksalad; test: Test B flooded paddy test; type: in vivo, Heteranthera limosa; settings: 250 g ai/ha, Flood, 13 days, 0 to 100 scale (0 no effect, 100 complete control)
Summary of the method: as §2

[29] = 125 g ai/ha, postemergence, 10 days, visual injury, 0 to 100 scale (0 no effect, 100 complete control)
[30] = 500 g ai/ha, Postemergence, 0 to 100 scale
[31] = 125 g ai/ha, visual injury after 10 days, 0 to 100 scale, 0 is no effect, 100 is complete control
[32] = 500 g ai/ha, 0 to 100 scale (0 no effect, 100 complete control), 10 days

Cc1cccc2c1O[C@@H](C)CN2C(=O)c1cccc(-n2ncnc2C(C)C)c1 [Compound 56]
Plant response rating, Galium [1, 29]: 0 | Plant response rating, Galium [1, 30]: 0 | Plant response rating, Pigweed, Palmer [2, 29]: 0 | Plant response rating, Pigweed, Palmer [2, 30]: 0 | Plant response rating, Foxtail, Giant [3, 29]: 0 | Plant response rating, Foxtail, Giant [3, 30]: 0 | Plant response rating, Wheat [4, 31]: 0 | Plant response rating, Wheat [4, 32]: 0 | Plant response rating, Ragweed [5, 31]: 0 | Plant response rating, Ragweed [5, 32]: 0 | Plant response rating, Goosegrass [6, 31]: 0 | Plant response rating, Goosegrass [6, 32]: 0 | Plant response rating, Corn [7, 29]: 0 | Plant response rating, Corn [7, 30]: 0 | Plant response rating, Ragweed [8, 29]: 0 | Plant response rating, Ragweed [8, 30]: 0 | Plant response rating, Ryegrass, Italian [9, 31]: 0 | Plant response rating, Ryegrass, Italian [9, 32]: 0 | Plant response rating, Kochia [10, 31]: 0 | Plant response rating, Kochia [10, 32]: 0 | Plant response rating, Soybean [11, 29]: 0 | Plant response rating, Soybean [11, 30]: 10 | Plant response rating, Sedge, Umbrella [12]: 0 | Plant response rating, Blackgrass [13, 31]: 0 | Plant response rating, Blackgrass [13, 32]: 0 | Plant response rating, Rice [14]: 0 | Plant response rating, Ryegrass, Italian [15, 29]: 0 | Plant response rating, Ryegrass, Italian [15, 30]: 0 | Plant response rating, Wheat [16, 29]: 0 | Plant response rating, Wheat [16, 30]: 0 | Plant response rating, Foxtail, Giant [17, 31]: 0 | Plant response rating, Foxtail, Giant [17, 32]: 0 | Plant response rating, Barnyardgrass [18]: 0 | Plant response rating, Soybean [19, 31]: 0 | Plant response rating, Soybean [19, 32]: 0 | Plant response rating, Kochia [20, 29]: 0 | Plant response rating, Kochia [20, 30]: 0 | Plant response rating, Blackgrass [21, 29]: 0 | Plant response rating, Blackgrass [21, 30]: 0 | Plant response rating, Horseweed [22, 29]: 0 | Plant response rating, Horseweed [22, 30]: 0 | Plant response rating, Oat, Wild [23, 31]: 0 | Plant response rating, Oat, Wild [23, 32]: 0 | Plant response rating, Corn [24, 31]: 0 | Plant response rating, Corn [24, 32]: 0 | Plant response rating, Oat, Wild [25, 29]: 0 | Plant response rating, Oat, Wild [25, 30]: 0 | Plant response rating, Goosegrass [26, 29]: 0 | Plant response rating, Goosegrass [26, 30]: 0 | Plant response rating, Pigweed, Palmer [27, 31]: 0 | Plant response rating, Pigweed, Palmer [27, 32]: 0 | Plant response rating, Ducksalad [28]: 0

Cc1ccc(-n2cncn2)cc1C(=O)N1C[C@H](C)Oc2c(C)cccc21 [Compound 57]
Plant response rating, Galium [1, 29]: 80 | Plant response rating, Galium [1, 30]: 100 | Plant response rating, Pigweed, Palmer [2, 29]: 20 | Plant response rating, Pigweed, Palmer [2, 30]: 50 | Plant response rating, Foxtail, Giant [3, 29]: 90 | Plant response rating, Foxtail, Giant [3, 30]: 90 | Plant response rating, Wheat [4, 31]: 20 | Plant response rating, Wheat [4, 32]: 80 | Plant response rating, Ragweed [5, 31]: 0 | Plant response rating, Ragweed [5, 32]: 50 | Plant response rating, Goosegrass [6, 31]: 90 | Plant response rating, Goosegrass [6, 32]: 100 | Plant response rating, Corn [7, 29]: 70 | Plant response rating, Corn [7, 30]: 80 | Plant response rating, Ragweed [8, 29]: 30 | Plant response rating, Ragweed [8, 30]: 50 | Plant response rating, Ryegrass, Italian [9, 31]: 80 | Plant response rating, Ryegrass, Italian [9, 32]: 100 | Plant response rating, Kochia [10, 31]: 40 | Plant response rating, Kochia [10, 32]: 30 | Plant response rating, Soybean [11, 29]: 100 | Plant response rating, Soybean [11, 30]: 100 | Plant response rating, Sedge, Umbrella [12]: 90 | Plant response rating, Blackgrass [13, 31]: 60 | Plant response rating, Blackgrass [13, 32]: 90 | Plant response rating, Rice [14]: 0 | Plant response rating, Ryegrass, Italian [15, 29]: 70 | Plant response rating, Ryegrass, Italian [15, 30]: 100 | Plant response rating, Wheat [16, 29]: 70 | Plant response rating, Wheat [16, 30]: 90 | Plant response rating, Foxtail, Giant [17, 31]: 100 | Plant response rating, Foxtail, Giant [17, 32]: 100 | Plant response rating, Barnyardgrass [18]: 15 | Plant response rating, Soybean [19, 31]: 100 | Plant response rating, Soybean [19, 32]: 100 | Plant response rating, Kochia [20, 29]: 10 | Plant response rating, Kochia [20, 30]: 30 | Plant response rating, Blackgrass [21, 29]: 50 | Plant response rating, Blackgrass [21, 30]: 80 | Plant response rating, Horseweed [22, 29]: 0 | Plant response rating, Horseweed [22, 30]: 20 | Plant response rating, Oat, Wild [23, 31]: 50 | Plant response rating, Oat, Wild [23, 32]: 90 | Plant response rating, Corn [24, 31]: 0 | Plant response rating, Corn [24, 32]: 40 | Plant response rating, Oat, Wild [25, 29]: 80 | Plant response rating, Oat, Wild [25, 30]: 90 | Plant response rating, Goosegrass [26, 29]: 40 | Plant response rating, Goosegrass [26, 30]: 90 | Plant response rating, Pigweed, Palmer [27, 31]: 30 | Plant response rating, Pigweed, Palmer [27, 32]: 100 | Plant response rating, Ducksalad [28]: 65

O=C(c1cccc(-n2cncn2)c1)N1CC(C(F)(F)F)Oc2c(Cl)cccc21 (centres unmarked) [Compound 59]
Plant response rating, Galium [1, 29]: 90 | Plant response rating, Galium [1, 30]: 100 | Plant response rating, Pigweed, Palmer [2, 29]: 20 | Plant response rating, Pigweed, Palmer [2, 30]: 50 | Plant response rating, Foxtail, Giant [3, 29]: 40 | Plant response rating, Foxtail, Giant [3, 30]: 90 | Plant response rating, Wheat [4, 31]: 0 | Plant response rating, Wheat [4, 32]: 50 | Plant response rating, Ragweed [5, 31]: 0 | Plant response rating, Ragweed [5, 32]: 0 | Plant response rating, Goosegrass [6, 31]: 90 | Plant response rating, Goosegrass [6, 32]: 100 | Plant response rating, Corn [7, 30]: 20 | Plant response rating, Ragweed [8, 29]: 40 | Plant response rating, Ragweed [8, 30]: 40 | Plant response rating, Ryegrass, Italian [9, 31]: 90 | Plant response rating, Ryegrass, Italian [9, 32]: 100 | Plant response rating, Kochia [10, 31]: 0 | Plant response rating, Kochia [10, 32]: 90 | Plant response rating, Soybean [11, 30]: 100 | Plant response rating, Sedge, Umbrella [12]: 0 | Plant response rating, Blackgrass [13, 31]: 0 | Plant response rating, Blackgrass [13, 32]: 60 | Plant response rating, Rice [14]: 0 | Plant response rating, Ryegrass, Italian [15, 29]: 0 | Plant response rating, Ryegrass, Italian [15, 30]: 60 | Plant response rating, Wheat [16, 29]: 10 | Plant response rating, Wheat [16, 30]: 40 | Plant response rating, Foxtail, Giant [17, 31]: 90 | Plant response rating, Foxtail, Giant [17, 32]: 100 | Plant response rating, Barnyardgrass [18]: 0 | Plant response rating, Soybean [19, 32]: 90 | Plant response rating, Kochia [20, 29]: 10 | Plant response rating, Kochia [20, 30]: 70 | Plant response rating, Blackgrass [21, 29]: 20 | Plant response rating, Blackgrass [21, 30]: 80 | Plant response rating, Horseweed [22, 29]: 0 | Plant response rating, Horseweed [22, 30]: 0 | Plant response rating, Oat, Wild [23, 31]: 20 | Plant response rating, Oat, Wild [23, 32]: 90 | Plant response rating, Corn [24, 32]: 20 | Plant response rating, Oat, Wild [25, 29]: 10 | Plant response rating, Oat, Wild [25, 30]: 50 | Plant response rating, Goosegrass [26, 29]: 20 | Plant response rating, Goosegrass [26, 30]: 50 | Plant response rating, Pigweed, Palmer [27, 31]: 10 | Plant response rating, Pigweed, Palmer [27, 32]: 100 | Plant response rating, Ducksalad [28]: 0
